Columns and labels:
[1] = system: COLO205 (colon); assay: Inhibition of cell proliferation, CellTiter-Glo, COLO205; type: cell-based; conditions: Homo sapiens, COLO 205, 72 h
Protocol: C. Inhibition of Cell Proliferation
Cell proliferation was measured by either CellTiter-Glo (measures cellular ATP level as a surrogate for total cell number) or by InCell analyzer (counts number of nuclei as a measure of cell number). For CellTiter-Glo assay, exponentially growing cell lines of different tumor origins, cultured in appropriate media containing 10% fetal bovine serum at 37° C. in a 5% CO2 incubator, were plated at low density (less than 2000 cells/well) in 96-well plates. […] Several wells were left untreated as a control. Seventy two hours post-treatment, cell numbers were determined using 50-100 ul per well of CellTiter-Glo (Promega #G7573). Plates were incubated at 37° C. for 30 minutes and the chemiluminescent signal was read on the Victor V or Envison 2100 reader. […]

[2] = biological target: T1, human IGF-1R (NIH-3T3 cells over expressing human IGF-1R) (Homo sapiens, UniProt P08069); assay: IGF-1R cellular autophosphorylation (DELFIA); type: cell-based; conditions: IGF-1 stimulated
T1 construct: expressed in transfected cells; host or cells: NIH-3T3 (mouse fibroblasts)
T1 sequence (P08069 31-1367): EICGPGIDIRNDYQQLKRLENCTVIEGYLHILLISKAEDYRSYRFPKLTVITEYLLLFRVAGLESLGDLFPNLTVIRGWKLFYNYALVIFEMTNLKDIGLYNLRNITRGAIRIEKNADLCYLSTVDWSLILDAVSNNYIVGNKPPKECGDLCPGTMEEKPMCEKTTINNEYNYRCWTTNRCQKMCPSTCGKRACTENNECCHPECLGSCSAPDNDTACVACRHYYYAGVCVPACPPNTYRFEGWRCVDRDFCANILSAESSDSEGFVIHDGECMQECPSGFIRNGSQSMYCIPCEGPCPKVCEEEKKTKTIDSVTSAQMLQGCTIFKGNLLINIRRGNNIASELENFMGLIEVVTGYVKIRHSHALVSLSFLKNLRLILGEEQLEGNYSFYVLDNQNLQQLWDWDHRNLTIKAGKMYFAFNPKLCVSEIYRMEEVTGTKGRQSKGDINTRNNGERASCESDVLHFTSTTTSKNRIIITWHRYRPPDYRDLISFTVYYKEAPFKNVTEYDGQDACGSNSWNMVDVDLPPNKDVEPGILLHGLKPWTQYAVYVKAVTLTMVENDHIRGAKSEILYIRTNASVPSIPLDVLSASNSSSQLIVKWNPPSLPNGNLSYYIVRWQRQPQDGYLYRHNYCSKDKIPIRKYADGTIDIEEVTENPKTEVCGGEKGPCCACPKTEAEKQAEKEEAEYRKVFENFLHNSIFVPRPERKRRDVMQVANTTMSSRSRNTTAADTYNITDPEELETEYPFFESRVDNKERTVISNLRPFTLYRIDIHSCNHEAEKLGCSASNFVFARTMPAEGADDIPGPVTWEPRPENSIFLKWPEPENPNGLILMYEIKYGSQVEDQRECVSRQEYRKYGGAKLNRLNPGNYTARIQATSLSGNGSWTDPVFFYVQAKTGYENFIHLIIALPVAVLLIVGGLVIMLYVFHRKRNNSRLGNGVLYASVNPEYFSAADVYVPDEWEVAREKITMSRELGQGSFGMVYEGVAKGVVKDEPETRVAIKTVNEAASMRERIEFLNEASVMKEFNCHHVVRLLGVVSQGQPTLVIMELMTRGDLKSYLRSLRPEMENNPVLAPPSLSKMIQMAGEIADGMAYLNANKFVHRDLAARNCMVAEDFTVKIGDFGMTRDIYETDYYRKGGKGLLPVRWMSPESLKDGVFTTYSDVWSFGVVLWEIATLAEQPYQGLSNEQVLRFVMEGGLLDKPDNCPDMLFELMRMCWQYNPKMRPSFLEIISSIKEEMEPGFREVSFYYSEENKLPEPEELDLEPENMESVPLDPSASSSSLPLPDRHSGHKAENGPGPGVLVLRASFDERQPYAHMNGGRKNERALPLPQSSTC
Protocol: D. IGF-1R and IR Cellular Autophosphorylation (DELFIA)
NIH-3T3 cells over expressing human IGF-1R or IR were plated in 96-well plates (10,000 cells/well) in culture media containing 10% fetal bovine serum and incubated at 37° C. in a 5% CO2 incubator. Twenty four hours post-plating, cells were treated with different concentrations of test compounds ranging from 30 uM to 1.5 nM. Two hours after compound addition, cells were stimulated with either human IGF-1 (30 ng/mL) or insulin (3 ug/mL) for 15 minutes. Cell lysates are analyzed for phosphorylated receptors using dissociation enhanced lanthanide fluor-immuno assay (DELFIA) with anti-IGF-1R (MAB391, R&D Systems, Minneapolis, Minn.) or anti-IR[…](sc-711, Santa Cruz Biotechnology, Santa Cruz, Calif.) capture antibody and europium-labeled anti-pTyr antibody (Eu-N1 PT66, Perkin Elmer, Waltham, Mass.) for detection. The fluorescence signal for cells treated with compounds was expressed as percent relative to 100% stimulation (IGF-1 or insulin stimulated signal). […]

SMILES	IC50 [1]	IC50 [2]
COc1ccn2c(-c3ccnc(Nc4cccc(OCCN(C)C)c4)n3)c(-c3ccc(OC)c(C(=O)Nc4c(F)cccc4F)c3)nc2c1 [Example 3, N-(2,6-difluorophenyl)-5-[3-{2-[(3-{[2-(dimethylamino)ethyl]oxy}phenyl)amino]-4-pyrimidinyl}-7-(methyloxy)imidazo[1,2-a]pyridin-2-yl]-2-(methyloxy)benzamide]	250 to 1000 nM	100 to 500 nM
CN(C)CCOc1cccc(Nc2nccc(-c3c(-c4cccc(C(=O)Nc5cc(Cl)ccc5F)c4)nc4ccccn34)n2)c1 [Example 9, N-(5-chloro-2-fluorophenyl)-3-(3-{2-[(3-{[2-(dimethylamino)ethyl]oxy}phenyl)amino]-4-pyrimidinyl}imidazo[1,2-a]pyridin-2-yl)benzamide]	–	100 to 500 nM
CN(C)CCOc1cccc(Nc2nccc(-c3c(-c4cccc(C(=O)Nc5cc(C(F)(F)F)ccc5F)c4)nc4ccccn34)n2)c1 [Example 10, 3-(3-{2-[(3-{[2-(dimethylamino)ethyl]oxy}phenyl)amino]-4-pyrimidinyl}imidazo[1,2-a]pyridin-2-yl)-N-[2-fluoro-5-(trifluoromethyl)phenyl]benzamide]	–	100 to 500 nM
CN(C)CCOc1cccc(Nc2nccc(-c3c(-c4cccc(C(=O)Nc5ccc(F)cc5F)c4)nc4ccccn34)n2)c1 [Example 13]	–	< 100 nM
Cc1ccn2c(-c3ccnc(Nc4cccc(OCCN(C)C)c4)n3)c(-c3cccc(C(=O)Nc4c(F)cccc4F)c3)nc2c1 [Example 14, N-(2,6-difluorophenyl)-3-(3-{2-[(3-{[2-(dimethylamino)ethyl]oxy}phenyl)amino]-4-pyrimidinyl}-7-methylimidazo[1,2-a]pyridin-2-yl)benzamide]	–	> 500 nM
CN(C)CCOc1cccc(Nc2nccc(-c3c(-c4cccc(C(=O)Nc5c(F)cccc5F)c4)nc4ccccn34)n2)c1 [Example 20, N-(2,6-difluorophenyl)-3-(3-{2-[(3-{[2-(dimethylamino)ethyl]oxy}phenyl)amino]-4-pyrimidinyl}imidazo[1,2-a]pyridin-2-yl)benzamide]	< 250 nM	100 to 500 nM
Cc1c(CN2CCN(C)CC2)cccc1Nc1nccc(-c2c(-c3cccc(C(=O)Nc4c(F)cccc4F)c3)nc3ccccn23)n1 [Example 24]	250 to 1000 nM	< 100 nM
COc1ccc(-c2nc3ccccn3c2-c2ccnc(Nc3cccc(CN4CCN(C)CC4)c3C)n2)cc1C(=O)Nc1c(F)cccc1F [Example 25, N-(2,6-difluorophenyl)-5-{3-[2-({2-methyl-3-[(4-methyl-1-piperazinyl)methyl]phenyl}amino)-4-pyrimidinyl}imidazo[1,2-a]pyridin-2-yl]-2-(methyloxy)benzamide]	250 to 1000 nM	100 to 500 nM
COc1cc(-c2nnc(CN3CCCC3)o2)ccc1Nc1nccc(-c2c(-c3ccc(OC)c(C(=O)Nc4c(F)cccc4F)c3)nc3ccccn23)n1 [Example 28, N-(2,6-difluorophenyl)-2-(methyloxy)-5-{3-[2-({2-(methyloxy)-4-[5-(1-pyrrolidinylmethyl)-1,3,4-oxadiazol-2-yl]phenyl]amino)-4-pyrimidinyl}imidazo[1,2-a]pyridin-2-yl}benzamide]	–	100 to 500 nM
COc1cc(-c2nnc(CN3CCCC3)o2)ccc1Nc1nccc(-c2c(-c3cccc(C(=O)Nc4c(F)cccc4F)c3)nc3ccccn23)n1 [Example 29, N-(2,6-difluorophenyl)-3-{3-[2-({2-(methyloxy)-4-[5-(1-pyrrolidinylmethyl)-1,3,4-oxadiazol-2-yl]phenyl}amino)-4-pyrimidinyl]imidazo[1,2-a]pyridin-2-yl}benzamide]	–	100 to 500 nM
COc1ccc(N2CCC(N3CCCCC3)CC2)cc1Nc1nccc(-c2c(-c3cccc(C(=O)Nc4c(F)cccc4F)c3)nc3ccccn23)n1 [Example 30, 3-[3-(2-{[5-(1,4′-bipiperidin-1′-yl)-2-(methyloxy)phenyl]amino}-4-pyrimidinyl)imidazo[1,2-a]pyridin-2-yl]-N-(2,6-difluorophenyl)benzamide]	250 to 1000 nM	100 to 500 nM
COc1ccc(N2CCC(N3CCCCC3)CC2)cc1Nc1nccc(-c2c(-c3ccc(OC)c(C(=O)Nc4c(F)cccc4F)c3)nc3ccccn23)n1 [Example 31, 5-[3-(2-{[5-(1,4′-bipiperidin-1-yl)-2-(methyloxy)phenyl]amino}-4-pyrimidinyl)imidazo[1,2-a]pyridin-2-yl]-N-(2,6-difluorophenyl)-2-(methyloxy)benzamide]	250 to 1000 nM	< 100 nM
COc1cc(N2CCC(N3CCN(S(C)(=O)=O)CC3)CC2)ccc1Nc1nccc(-c2c(-c3ccc(OC)c(C(=O)Nc4c(F)cccc4F)c3)nc3ccccn23)n1 [Example 69]	250 to 1000 nM	–
COc1cc(N2CCC(N3CCCC(F)(F)C3)CC2)ccc1Nc1nccc(-c2c(-c3cccc(C(=O)Nc4c(F)cccc4F)c3)nc3ccccn23)n1 [Example 75, 3-[3-(2-{[4-(3,3-difluoro-1,4′-bipiperidin-1′-yl)-2-(methyloxy)phenyl]amino]-4-pyrimidinyl)imidazo[1,2-a]pyridin-2-yl]-N-(2,6-difluorophenyl)benzamide]	250 to 1000 nM	< 100 nM
COc1cc(N2CCC(N3CCC[C@H](O)C3)CC2)ccc1Nc1nccc(-c2c(-c3ccc(OC)c(C(=O)Nc4c(F)cccc4F)c3)nc3ccccn23)n1 [Example 84, N-(2,6-difluorophenyl)-5-[3-(2-{[4-[(3S)-3-hydroxy-1,4′-bipiperidin-1′-yl]-2-(methyloxy)-phenyl]amino}-4-pyrimidinyl)imidazo[1,2-a]pyridin-2-yl]-2-(methyloxy)benzamide]	< 250 nM	< 100 nM

Second part, the molecule after the results:

IC50 [1]	IC50 [2]	SMILES
250 to 1000 nM	< 100 nM	COc1cc(N2CCC(N3CCOCC3)CC2)ccc1Nc1nccc(-c2c(-c3cccc(C(=O)Nc4c(F)cccc4F)c3)nc3ccccn23)n1 [Example 38, N-(2,6-difluorophenyl)-3-{3-[2-({2-(methyloxy)-4-[4-(4-morpholinyl)-1-piperidinyl]phenyl}amino)-4-pyrimidinyl]imidazo[1,2-a]pyridin-2-yl}benzamide]
250 to 1000 nM	< 100 nM	COc1cc(N2CCOCC2)ccc1Nc1nccc(-c2c(-c3cccc(C(=O)Nc4c(F)cccc4F)c3)nc3ccccn23)n1 [Example 71, N-(2,6-difluorophenyl)-3-[3-(2-{[2-(methyloxy)-4-(4-morpholinyl)phenyl]amino}-4-pyrimidinyl)imidazo[1,2-a]pyridin-2-yl]benzamide]
< 250 nM	< 100 nM	COc1cc(N2CCC(N(C)C)CC2)ccc1Nc1nccc(-c2c(-c3cccc(C(=O)Nc4c(F)cccc4F)c3)nc3ccccn23)n1 [Example 74, N-(2,6-difluorophenyl)-3-[3-(2-{[4-[4-(dimethylamino)-1-piperidinyl]-2-(methyloxy)phenyl]amino}-4-pyrimidinyl)imidazo[1,2-a]pyridin-2-yl]benzamide]
250 to 1000 nM	< 100 nM	COc1cc(N2CCC(N3CC[C@@H](F)C3)CC2)ccc1Nc1nccc(-c2c(-c3cccc(C(=O)Nc4c(F)cccc4F)c3)nc3ccccn23)n1 [Example 76, N-(2,6-difluorophenyl)-3-[3-(2-{[4-{4-[(3R)-3-fluoro-1-pyrrolidinyl]-1-piperidinyl}-2-(methyloxy)phenyl]amino}-4-pyrimidinyl)imidazo[1,2-a]pyridin-2-yl]benzamide]
250 to 1000 nM	< 100 nM	COc1cc(N2CCC(N3CC[C@H](F)C3)CC2)ccc1Nc1nccc(-c2c(-c3cccc(C(=O)Nc4c(F)cccc4F)c3)nc3ccccn23)n1 [Example 77, N-(2,6-difluorophenyl)-3-[3-(2-{[4-{4-[(3S)-3-fluoro-1-pyrrolidinyl]-1-piperidinyl}-2-(methyloxy)phenyl]amino}-4-pyrimidinyl)imidazo[1,2-a]pyridin-2-yl]benzamide]
250 to 1000 nM	< 100 nM	COc1cc(N2CCC(OC)CC2)ccc1Nc1nccc(-c2c(-c3cccc(C(=O)Nc4c(F)cccc4F)c3)nc3ccccn23)n1 [Example 125, N-(2,6-difluorophenyl)-3-{3-[2-({2-(methyloxy)-4-[4-(methyloxy)-1-piperidinyl]phenyl}-amino)-4-pyrimidinyl}imidazo[1,2-a]pyridin-2-yl]benzamide]
250 to 1000 nM	< 100 nM	COc1cc(N2CCC(OC)CC2)ccc1Nc1nccc(-c2c(-c3ccc(OC)c(C(=O)Nc4c(F)cccc4F)c3)nc3ccccn23)n1 [Example 126, N-(2,6-difluorophenyl)-2-(methyloxy)-5-{3-[2-({2-(methyloxy)-4-[4-(methyloxy)-1-piperidinyl}phenyl}amino)-4-pyrimidinyl]imidazo[1,2-a]pyridin-2-yl]benzamide]

From patent US20100216779A1 (GLAXOSMITHKLINE LLC, priority 2007, published 2010)
